Measured values published in patent US20240116985A1, “STAPLED PEPTIDES AND METHODS THEREOF” (priority 2020, published 2024).
Read-outs that look alike come from different tables or passages of the source.

Assays:
[1] = target: T1, full-length beta-Catenin (Uniprot ID P35222) (Homo sapiens, UniProt P35222); experiment: Fluorescence polarization IC50 (beta-catenin / 5FAM-TCF4 10-53 competition); format: binding; conditions: fluorescence polarization; read-out: beta-Catenin FP IC50
T1 construct: 10 nM full-length beta-Catenin (Uniprot ID P35222)
T1 sequence (P35222 1-781): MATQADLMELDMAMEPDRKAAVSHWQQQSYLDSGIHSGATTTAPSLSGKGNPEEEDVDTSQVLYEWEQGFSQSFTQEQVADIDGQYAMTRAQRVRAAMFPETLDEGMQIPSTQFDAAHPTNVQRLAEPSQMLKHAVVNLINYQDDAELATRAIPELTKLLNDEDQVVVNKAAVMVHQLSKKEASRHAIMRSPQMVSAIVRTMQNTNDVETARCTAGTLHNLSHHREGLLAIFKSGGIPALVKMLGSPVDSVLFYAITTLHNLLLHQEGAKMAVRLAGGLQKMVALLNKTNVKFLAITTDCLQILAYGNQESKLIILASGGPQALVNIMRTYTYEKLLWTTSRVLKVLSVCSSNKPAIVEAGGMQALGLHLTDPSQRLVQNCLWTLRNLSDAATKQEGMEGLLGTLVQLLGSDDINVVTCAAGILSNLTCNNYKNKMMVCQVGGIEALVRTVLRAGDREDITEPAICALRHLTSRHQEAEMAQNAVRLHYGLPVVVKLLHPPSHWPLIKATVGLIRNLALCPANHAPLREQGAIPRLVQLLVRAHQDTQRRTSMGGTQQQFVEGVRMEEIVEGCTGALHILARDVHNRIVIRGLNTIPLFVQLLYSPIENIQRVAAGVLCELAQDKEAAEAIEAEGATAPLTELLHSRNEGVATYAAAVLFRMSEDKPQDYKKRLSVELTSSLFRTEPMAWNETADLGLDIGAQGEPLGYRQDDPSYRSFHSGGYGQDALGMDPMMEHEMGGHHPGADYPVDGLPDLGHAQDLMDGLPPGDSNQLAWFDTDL

[2] = target: T2, beta-catenin/TCF4 engagement (Homo sapiens, UniProt P35222); experiment: Nano-BRET target engagement assay (B-cat-Halo & TCF4-Luc in HEK293 cells); format: cell-based; conditions: read-out: NanoBRET Abs IC50
T2 construct: expressed in transfected cells; host or cells: HEK293
T2 sequence (P35222 1-781): T1 sequence (P35222 1-781)

SMILES | IC50 [1] | IC50 ([2]; absolute IC50) | IC50 [2]
CC(=O)N1CCC[C@]12CC=CCCCC1(CCCC=CCCCOC(=O)N3CC[C@@](C(=O)N[C@@H](Cc4ccsc4)C(=O)N[C@@H](Cc4csc5ccccc45)C(=O)N[C@@H](CCC(N)=O)C(N)=O)(C3)NC(=O)[C@H](CC(N)=O)NC(=O)[C@H](Cc3ccccc3)NC(=O)[C@H](C)NC(=O)[C@H](C)NC(=O)[C@H](Cc3cccc(-c4nnn[nH]4)c3)NC(=O)[C@H](CC(=O)O)NC1=O)NC(=O)[C@H](CC(C)(C)C)NC(=O)[C@H](CC(=O)O)NC2=O (stereo partly drawn) [I-1578, Ac-PL3-Asp-Npg-B5-Asp-3TzF-Ala-Ala-Phe-Asn-PyrS2-3Thi-BztA-Gln-NH2] | 11 nM | > 20000 nM | 
CC(=O)NCCCC[C@@H]1NC(=O)[C@H](Cc2ccccc2)NC(=O)[C@H](C)NC(=O)[C@H](C)NC(=O)[C@H](Cc2cccc(C(=O)O)c2)NC(=O)[C@H](CC(=O)O)NC(=O)C2(CCCC=CCCCOC(=O)N3CC[C@@](C(=O)N[C@@H](Cc4ccccc4C(F)(F)F)C(=O)N[C@@H](Cc4csc5ccccc45)C(=O)N[C@@H](CCC(=O)N4CCOCC4)C(N)=O)(C3)NC1=O)CCCC=CC[C@]1(CCCN1C(C)=O)C(=O)N[C@@H](CC(=O)O)C(=O)N[C@@H](CC(C)(C)C)C(=O)N2 (stereo partly drawn) [I-2548, Ac-PL3-Asp-Npg-B5-Asp-3COOHF-Ala-Ala-Phe-AcLys-PyrS2-2F3MeF-BztA-MorphGln-NH2] | 11 nM | 3600 nM | 
CCCCCCSSCCOC(=O)C[C@@H]1NC(=O)C2(CCCC=CCCCOC(=O)N3CC[C@@](C(=O)N[C@@H](Cc4ccsc4)C(=O)N[C@@H](Cc4csc5ccccc45)C(=O)N[C@@H](CCC(N)=O)C(N)=O)(C3)NC(=O)[C@H](CC(C)C)NC(=O)[C@H](Cc3ccccc3)NC(=O)[C@H](C)NC(=O)[C@H](C)NC(=O)[C@H](CC(=O)O)NC1=O)CCCC=CC[C@]1(CCCN1C(C)=O)C(=O)N[C@@H](CC(=O)O)C(=O)N[C@@H](CC(C)(C)C)C(=O)N2 (stereo partly drawn) [I-1961, Ac-PL3-Asp-Npg-B5-[EtSSHex]AspE-Asp-Ala-Ala-Phe-Leu-PyrS2-3Thi-BztA-Gln-NH2] | 2100 nM |  | > 20000 nM
CC(=O)N1CCC[C@]12CC=CCCCC1(CCCC=CCCCOC(=O)N3CC[C@@](C(=O)N[C@@H](Cc4ccccc4Cl)C(=O)N[C@@H](Cc4csc5ccccc45)C(=O)N[C@@H](CCCCNC(C)C)C(N)=O)(C3)NC(=O)[C@H]([C@@H](C)O)NC(=O)[C@H](Cc3ccccc3)NC(=O)[C@H](C)NC(=O)[C@H](C)NC(=O)[C@H](CN(CC(=O)O)CC(F)(F)F)NC(=O)[C@H](CC(=O)O)NC1=O)NC(=O)[C@H](CC(C)(C)C)NC(=O)[C@H](CC(=O)O)NC2=O (stereo partly drawn) [I-1615, Ac-PL3-Asp-Npg-B5-Asp-TfeGA-Ala-Ala-Phe-Thr-PyrS2-2C1F-BztA-iPrLys-NH2] | 9 nM | 8000 nM | 
CC(=O)N1CCC[C@]12CC=CCCCC1(CCCC=CCCCCCC[C@@](C)(C(=O)N[C@@H](Cc3ccccc3)C(=O)N[C@@H](Cc3csc4ccccc34)C(=O)N[C@@H](CCC(N)=O)C(N)=O)NC(=O)[C@H](CCC(N)=O)NC(=O)[C@H](Cc3ccccc3)NC(=O)[C@H](C)NC(=O)[C@H](C)NC(=O)[C@H](CCC(=O)O)NC(=O)[C@H](CC(=O)O)NC1=O)NC(=O)[C@H](CCC(N)=O)NC(=O)[C@H](CC(=O)O)NC2=O (stereo partly drawn) [I-1539, Ac-PL3-Asp-Gln-B5-Asp-Glu-Ala-Ala-Phe-Gln-S8-Phe-BztA-Gln-NH2] | 36 nM | > 20000 nM | 
CC(=O)N1CCC[C@]12CC=CCCCC1(CCCC=CCCCOC(=O)N3CC[C@@](C(=O)N[C@@H](Cc4ccccc4C(F)(F)F)C(=O)N[C@@H](Cc4ccc5ccccc5c4)C(=O)N[C@@H](CCC(N)=O)C(N)=O)(C3)NC(=O)[C@H](CC(C)C)NC(=O)[C@H](Cc3ccccc3)NC(=O)[C@H](C)NC(=O)[C@H](C)NC(=O)[C@H](Cc3cccc(C(=O)O)c3)NC(=O)[C@H](CC(=O)O)NC1=O)NC(=O)[C@H](CC(C)(C)C)NC(=O)[C@H](CC(=O)O)NC2=O (stereo partly drawn) [I-2460, Ac-PL3-Asp-Npg-B5-Asp-3COOHF-Ala-Ala-Phe-Leu-PyrS2-2F3MeF-2NapA-Gln-NH2] | 82 nM | 12800 nM | 
CC(=O)N1CCC[C@]12CC=CCCCC1(CCCC=CCCCOC(=O)N3CC[C@@](C(=O)N[C@@H](Cc4ccsc4)C(=O)N[C@@H](Cc4csc5ccccc45)C(=O)N[C@@H](CCC(N)=O)C(=O)N[C@@H](CCCCNC(=O)COCCOCCNC(=O)C45CC6(C)CC(C)(CC(C)(C6)C4)C5)C(N)=O)(C3)NC(=O)[C@H](CC(C)C)NC(=O)[C@H](Cc3ccccc3)NC(=O)[C@H](C)NC(=O)[C@H](C)NC(=O)[C@H](CC(=O)O)NC(=O)[C@H](CC(=O)O)NC1=O)NC(=O)[C@H](CC(C)(C)C)NC(=O)[C@H](CC(=O)O)NC2=O (stereo partly drawn) [I-1480, Ac-PL3-Asp-Npg-B5-Asp-Asp-Ala-Ala-Phe-Leu-PyrS2-3Thi-BztA-Gln-Me3AdamantC-PEG2]-Lys-NH2] | 37 nM | 9300 nM | 
CC(=O)N1CCC[C@]12CCCCCCC1(CCCCCCCCCCC[C@@](C)(C(=O)N[C@@H](Cc3ccsc3)C(=O)N[C@@H](Cc3csc4ccccc34)C(=O)N[C@@H](CCC(N)=O)C(N)=O)NC(=O)[C@H](CC(C)C)NC(=O)[C@H](Cc3ccccc3)NC(=O)[C@H](C)NC(=O)[C@H](C)NC(=O)[C@H](CN(CC(=O)O)CC(F)(F)F)NC(=O)[C@H](CC(=O)O)NC1=O)NC(=O)[C@H](CC(C)(C)C)NC(=O)[C@H](CC(=O)O)NC2=O (stereo partly drawn) [I-1698, Ac-PL3-Asp-Npg-B5-Asp-TfeGA-Ala-Ala-Phe-Leu-S8-3Thi-BztA-Gln-NH2] | 165 nM | > 20000 nM | 
CC(=O)N1CCC[C@]12CC=CCCCC1(CCCC=CCCCOC(=O)N3CC[C@@](C(=O)N[C@@H](Cc4ccccc4C(F)(F)F)C(=O)N[C@@H](Cc4csc5ccccc45)C(=O)N[C@@H](CCS(C)(=O)=O)C(N)=O)(C3)NC(=O)[C@H](CC(C)C)NC(=O)[C@H](Cc3ccccc3)NC(=O)[C@H](C)NC(=O)[C@H](C)NC(=O)[C@H](Cc3cccc(C(=O)O)c3)NC(=O)[C@H](CC(=O)O)NC1=O)NC(=O)[C@H](CC(C)(C)C)NC(=O)[C@H](CC(=O)O)NC2=O (stereo partly drawn) [I-2063, Ac-PL3-Asp-Npg-B5-Asp-3COOHF-Ala-Ala-Phe-Leu-PyrS2-2F3MeF-BztA-Met2O-NH2] | 56 nM |  | 3500 nM
CC(=O)N1CCC[C@]12CC=CCCCC1(CCCC=CCCCOC(=O)N3CC[C@@](C(=O)N[C@@H](Cc4ccccc4)C(=O)N[C@@H](Cc4csc5ccccc45)C(=O)N[C@@H](CCCCN)C(N)=O)(C3)NC(=O)[C@H](CC(C)C)NC(=O)[C@H](Cc3ccccc3)NC(=O)[C@H](C)NC(=O)[C@H](CCO)NC(=O)[C@H](CCC(N)=O)NC(=O)[C@H](CC(=O)O)NC1=O)NC(=O)[C@H](CC1CCCCC1)NC(=O)[C@H](CC(N)=O)NC2=O (stereo partly drawn) [I-2419, Ac-PL3-Asn-Cha-B5-Asp-Gln-Hse-Ala-Phe-Leu-PyrS2-Phe-BztA-Lys-NH2] | 203 nM | > 20000 nM | 
CC(=O)N1CCC[C@]12CC=CCCCC1(CCCC=CCCCOC(=O)N3CC[C@@](C(=O)N[C@@H](Cc4ccsc4)C(=O)N[C@@H](Cc4csc5ccccc45)C(=O)N[C@@H](CO)C(N)=O)(C3)NC(=O)[C@H](CC(C)C)NC(=O)[C@H](Cc3ccccc3)NC(=O)[C@H](C)NC(=O)[C@H](C)NC(=O)[C@H]([C@@H](C)O)NC(=O)[C@H](CC(=O)O)NC1=O)NC(=O)[C@H](CC(C)(C)C)NC(=O)[C@H](CC(=O)O)NC2=O (stereo partly drawn) [I-1171, Ac-PL3-Asp-Npg-B5-Asp-Thr-Ala-Ala-Phe-Leu-PyrS2-3Thi-BztA-Ser-NH2] | 70 nM | 28800 nM | 
CC(=O)N1CCC[C@]12CC=CCCCCC1(CCCCC=CCCOC(=O)N3CC[C@@](C(=O)N[C@@H](Cc4ccccc4C(F)(F)F)C(=O)N[C@@H](Cc4csc5ccccc45)C(=O)N[C@@H](CCC(N)=O)C(N)=O)(C3)NC(=O)[C@H](CC(C)C)NC(=O)[C@H](Cc3ccccc3)NC(=O)[C@H](C)NC(=O)[C@H](C)NC(=O)[C@H](Cc3cccc(C(=O)O)c3)NC(=O)[C@H](CC(=O)O)NC1=O)NC(=O)[C@H](CC(C)(C)C)NC(=O)[C@H](CC(=O)O)NC2=O (stereo partly drawn) [I-2508, Ac-PL3-Asp-Npg-B6-Asp-3COOHF-Ala-Ala-Phe-Leu-PyrS1-2F3MeF-BztA-Gln-NH2] | 152 nM | 27300 nM | 
CC(=O)N1CCC[C@]12CC=CCCCC1(CCCC=CCCCOC(=O)N3CC[C@@](C(=O)N[C@@H](Cc4ccccc4)C(=O)N[C@@H](Cc4csc5ccccc45)C(=O)N[C@@H](CCC(N)=O)C(N)=O)(C3)NC(=O)[C@H](CC(N)=O)NC(=O)[C@H](Cc3ccccc3)NC(=O)[C@H](C)NC(=O)[C@H](CCCCNC(C)C)NC(=O)[C@H]([C@@H](C)O)NC(=O)[C@H](CC(=O)O)NC1=O)NC(=O)[C@H](CC(C)(C)C)NC(=O)[C@H](CC(N)=O)NC2=O (stereo partly drawn) [I-1602, Ac-PL3-Asn-Npg-B5-Asp-Thr-iPrLys-Ala-Phe-Asn-PyrS2-Phe-BztA-Gln-NH2] | 362 nM | > 20000 nM | 
